From patent US6875761B2 (Eisai Co., Ltd., priority 1997, dated 2005)
Counter-ions that a name gives are not always drawn.

What was measured:
serotonin 2 receptor = biological target: T1, serotonin 2 receptor (Rattus norvegicus, UniProt P14842); assay: Binding test on [3H] ketanserin, cerebral cortex receptor fraction; design: species or system SD rats; details: 0.3 nM [3H] ketanserin, 37° C. 15 min, read-out: 5HT2
T1 construct: To the receptor fraction of the cerebral cortex were added a test compound and 0.3 nM of [^3H] ketanserin; from tissue; host or cells: rat cerebral cortex membrane fraction

serotonin 1A receptor = biological target: T2, serotonin 1A receptor (Rattus norvegicus, UniProt P19327); assay: Binding test on [3H] 8-hydroxy-dipropylaminotetralin, hippocampus receptor fraction; design: species or system SD rats; details: rat hippocampus receptor fraction, 0.5 nM [3H] 8-OH-DPAT, room temperature 30 min; read-out: 5HT1
T2 construct: To the receptor fraction of the hippocampus were added a test compound and 0.5 nM of [^3H]; 8-hydroxy-dipropylaminotetralin; from tissue; host or cells: rat hippocampus membrane fraction
T2 sequence (P19327 1-422): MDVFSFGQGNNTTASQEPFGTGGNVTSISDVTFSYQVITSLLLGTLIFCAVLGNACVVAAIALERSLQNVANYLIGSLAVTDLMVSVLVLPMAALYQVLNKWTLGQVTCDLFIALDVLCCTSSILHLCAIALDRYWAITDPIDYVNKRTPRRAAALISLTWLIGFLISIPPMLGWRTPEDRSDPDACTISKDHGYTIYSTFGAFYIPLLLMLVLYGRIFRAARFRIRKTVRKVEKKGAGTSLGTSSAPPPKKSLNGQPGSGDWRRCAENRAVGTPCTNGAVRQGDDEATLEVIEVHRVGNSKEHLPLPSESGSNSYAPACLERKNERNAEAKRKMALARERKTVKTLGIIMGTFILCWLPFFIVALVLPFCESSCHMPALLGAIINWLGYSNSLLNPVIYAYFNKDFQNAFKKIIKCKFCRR

α1 adrenalin receptor = assay: Binding test on [3H] prazosin, cerebral cortex receptor fraction; design: species or system SD rats; details: rat cerebral cortex receptor fraction, about 0.2 nM [3H] prazosin, room temperature 60 min; read-out: α 1
Method: As radioisotope-labeled compounds, use was made of the following reagents (mfd. by NEN). • 3) [^3H] […] Prazosin.
Use was made of SD rats aged 6 to 8 weeks.
The rats were sacrificed by dcapitation to extirpate the cerebra.
Each mixture was homogenized by using a Teflon glass homogenizer and centrifuged as 1,000× g for 10 min. The supernatant thus obtained was further centrifuged at 20,000× g for 20 min. […] After centrifuging at 20,000× g for 20 min, the obtained precipitate was further suspended and centrifuged twice each in the same manner. […] This receptor fraction was stored at −80° C. until using.
IC50 was calculated by the probit method, while Ki was determined in accordance with the following formula: Ki=IC50(1+c/Kd) wherein c represents the concentration of the radioisotope-labeled compound, and Kd represents the dissociation constant of the radioisotope-labeled compound with respect to the receptor determined by Scatchard's analysis. (Binding test on [^3H] prazosin)
To the receptor fraction of the cerebral cortex were added a test compound and about 0.2 nM of [^3H] prazosin and the resultant mixture was incubated at room temperature for 60 min. Next, it was filtered through a glass filter with the use of a cell harvester. After washing the glass filter with 50 mM Tris hydrochloride (pH 7.4), the radioactivity of the receptor was measured with a liquid scintillation counter. The binding detected in the presence of 10 μM of phentolamine was referred to as the nonspecific binding.

T1 sequence (P14842 whole entry): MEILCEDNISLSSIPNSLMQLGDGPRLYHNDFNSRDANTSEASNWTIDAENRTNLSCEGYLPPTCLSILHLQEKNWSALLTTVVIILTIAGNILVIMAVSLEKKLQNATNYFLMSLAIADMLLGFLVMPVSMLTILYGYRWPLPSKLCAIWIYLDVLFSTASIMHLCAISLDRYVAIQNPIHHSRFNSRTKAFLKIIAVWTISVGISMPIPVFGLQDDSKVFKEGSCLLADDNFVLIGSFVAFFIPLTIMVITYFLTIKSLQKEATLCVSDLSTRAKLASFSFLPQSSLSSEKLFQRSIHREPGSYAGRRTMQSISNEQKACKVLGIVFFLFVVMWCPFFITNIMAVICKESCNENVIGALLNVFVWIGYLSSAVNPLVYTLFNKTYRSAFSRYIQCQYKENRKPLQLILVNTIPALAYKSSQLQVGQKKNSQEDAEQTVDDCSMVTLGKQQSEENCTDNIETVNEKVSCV

Structure (SMILES)	Ki (serotonin 2 receptor) [nM]	Ki (serotonin 1A receptor) [nM]	melting point	Ki (α1 adrenalin receptor) [nM]
CCN1CCN(c2nc(-c3ccc(O)cc3)cc3ccccc23)CC1 [Example 7, 1-(4-ethylpiperazin-1-yl)-3-(4-hydroxyphenyl)isoquinoline]	81.3	27.9	204 to 206 °C	521
CCN1CCN(c2nc(/C=C/c3ccccc3S(C)(=O)=O)cc3ccccc23)CC1.Cl [Example 202, 3-[(E)-2-(2-Methylsulfonylphenyl)Ethenyl]-1-(4-Ethylpiperazin-1-Yl)Isoquinoline Hydrochloride]	2.22	14.6	146 to 149 °C	> 2000
CCN1CCN(c2nc(-c3ccc(CCC(C)O)cc3)cc3ccoc23)CC1 (stereo not drawn) [Example 300, 7-(1-ethylpiperazin-4-yl)-5-[4-(3-hydroxybutyl)phenyl]furo[2,3-c]pyridine dihydrochloride]	9.06	0.49		> 2000
CCN1CCN(c2nc(-c3ccc(OCCCO)cc3)cc3ccccc23)CC1.Cl.Cl [Example 331, 1-(4-ethylpiperazin-1-yl)-3-[4-(3-hydroxypropoxy)phenyl]isoquinoline dihydrochloride]	5.9	23.6	112 to 113 °C (dec.)	722
CCN1CCN(c2nc(-c3ccc4c(c3)CC(CO)C4)cc3ccccc23)CC1 (stereo not drawn) [Example 393, 1-(4-Ethylpiperazin-1-yl)-3-(2-Hydroxymethylindan-5-yl)Isoquinoline Dihydrochloride]	1.8	13.1		242
CCN1CCN(c2nc(-c3ccc(CCC(C)(C)O)c(F)c3)cc3ccccc23)CC1 [Example 416, 1-(4-ethylpiperazin-1-yl)-3-[4-(3-hydroxy-3-methylbutyl)-3-fluorophenyl]isoquinoline]	0.7	31.2		174
